Results: patent US9113629B2, “4-amino-6-(4-substituted-phenyl)-picolinates and 6-amino-2-(4-substituted-phenyl)-pyrimidine-4-carboxylates and their use as herbicides” (DOW AGROSCIENCES LLC, priority 2013, dated 2015)
Read-outs that look alike come from different tables or passages of the source.

Key:
[1] = test system: Key Broadleaf Weed and Crop Species; assay: Post-emergent Test II herbicidal activity (Table 5); assay type: in vivo; conditions: post-emergence, 336 h, 14 days after application; for pest or weed control at 70 g/ha: application rate 70 g ai/ha; for pest or weed control at 140 g/ha: application rate 140 g ai/ha
Procedure, shortened: (§1)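 Visual injury ratings (0 = no injury, 100 = complete kill) were taken 14 d after treatment, relative to untreated plants. Seedlings at the first–second true leaf stage received overhead spray at 187 L/ha; the highest rate was serially diluted to ½×, ¼×, ⅛× and 1/16×.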

[2] = test system: Key Grass and Sedge Weeds as well as Grass Crops; assay: Post-emergent Test II herbicidal activity (Table 6); assay type: in vivo; conditions: post-emergence, 336 h; for pest or weed control at 70 g/ha: 70 g ai/ha; for pest or weed control at 140 g/ha: 140 g ai/ha
Procedure, shortened: as §1

[3] = ABUTH: velvetleaf (Abutilon theophrasti), read-out: Visual Growth Reduction (%) 14 Days After Application, ABUTH
[4] = AMARE: redroot pigweed (Amaranthus retroflexus), read-out: Visual Growth Reduction (%) 14 Days After Application, AMARE
[5] = BRSNN: oilseed-rape, canola (Brassica napus), read-out: Visual Growth Reduction (%) 14 Days After Application, BRSNN
[6] = CHEAL: lambsquarters (Chenopodium album), read-out: Visual Growth Reduction (%) 14 Days After Application, CHEAL
[7] = EPHHL: wild poinsettia (Euphorbia heterophylla), read-out: Visual Growth Reduction (%) 14 Days After Application, EPHHL
[8] = HELAN: sunflower (Helianthus annuus), read-out: Visual Growth Reduction (%) 14 Days After Application, HELAN
[9] = VIOTR: wild pansy (Viola tricolor), read-out: Visual Growth Reduction (%) 14 Days After Application, VIOTR
[10] = CYPES: yellow nutsedge (Cyperus esculentus), read-out: Visual Growth Reduction (%) 14 Days After Application, CYPES
[11] = DIGSA: crabgrass (Digitaria sanguinalis), read-out: Visual Growth Reduction (%) 14 Days After Application, DIGSA
[12] = ECHCG: barnyardgrass (Echinochloa crus-galli), read-out: Visual Growth Reduction (%) 14 Days After Application, ECHCG
[13] = ORYSA: rice (Oryza sativa), crop, read-out: Visual Growth Reduction (%) 14 Days After Application, ORYSA
[14] = SETFA: giant foxtail (Setaria faberi), read-out: Visual Growth Reduction (%) 14 Days After Application, SETFA
[15] = SORVU: grain sorghum (Sorghum vulgare), read-out: Visual Growth Reduction (%) 14 Days After Application, SORVU
[16] = TRZSS (wheat, Triticum aestivum), crop, read-out: Visual Growth Reduction (%) 14 Days After Application, TRZSS
[17] = ZEAMX: maize, corn (Zea mays), crop, read-out: Visual Growth Reduction (%) 14 Days After Application, ZEAMX

**Q.** For COC(=O)c1nc(-c2ccc(Br)cc2F)nc(N)c1OC [Compound 35], which pest or weed control at 70 g/ha [1, 3] is on record?
**A.** 95 to 100%

**Q.** And the pest or weed control at 140 g/ha [1, 3]?
**A.** 95 to 100%

**Q.** What about the pest or weed control at 70 g/ha [1, 4] of the same compound?
**A.** 75 to 84%

**Q.** What about the pest or weed control at 140 g/ha [1, 4] of the same compound?
**A.** 95 to 100%

**Q.** And the pest or weed control at 70 g/ha [1, 5]?
**A.** 95 to 100%

**Q.** And the pest or weed control at 140 g/ha [1, 5]?
**A.** 95 to 100%

**Q.** What about the pest or weed control at 70 g/ha [1, 6] of the same compound?
**A.** 95 to 100%

**Q.** And the pest or weed control at 140 g/ha [1, 6]?
**A.** 95 to 100%

**Q.** What about the pest or weed control at 70 g/ha [1, 7] of the same compound?
**A.** 95 to 100%

**Q.** What about the pest or weed control at 140 g/ha [1, 7] of the same compound?
**A.** 95 to 100%

**Q.** And the pest or weed control at 70 g/ha [1, 8]?
**A.** 95 to 100%

**Q.** What about the pest or weed control at 140 g/ha [1, 8] of the same compound?
**A.** 95 to 100%

**Q.** What about the pest or weed control at 70 g/ha [1, 9] of the same compound?
**A.** 85 to 94%

**Q.** And the pest or weed control at 140 g/ha [1, 9]?
**A.** 95 to 100%

**Q.** What about the melting point of the same compound?
**A.** 163 to 165 °C

**Q.** What about the pest or weed control at 70 g/ha [2, 10] of the same compound?
**A.** 95 to 100%

**Q.** And the pest or weed control at 140 g/ha [2, 10]?
**A.** 95 to 100%

**Q.** And the pest or weed control at 70 g/ha [2, 11]?
**A.** 45 to 59%

**Q.** And the pest or weed control at 140 g/ha [2, 11]?
**A.** 85 to 94%

**Q.** What about the pest or weed control at 70 g/ha [2, 12] of the same compound?
**A.** 30 to 44%

**Q.** And the pest or weed control at 140 g/ha [2, 12]?
**A.** 85 to 94%

**Q.** What about the pest or weed control at 70 g/ha [2, 13] of the same compound?
**A.** 0 to 29%

**Q.** And the pest or weed control at 140 g/ha [2, 13]?
**A.** 0 to 29%

**Q.** What about the pest or weed control at 70 g/ha [2, 14] of the same compound?
**A.** 0 to 29%

**Q.** What about the pest or weed control at 140 g/ha [2, 14] of the same compound?
**A.** 45 to 59%

**Q.** What about the pest or weed control at 70 g/ha [2, 15] of the same compound?
**A.** 45 to 59%

**Q.** What about the pest or weed control at 140 g/ha [2, 15] of the same compound?
**A.** 60 to 74%

**Q.** And the pest or weed control at 70 g/ha [2, 16]?
**A.** 30 to 44%

**Q.** What about the pest or weed control at 140 g/ha [2, 16] of the same compound?
**A.** 45 to 59%

**Q.** What about the pest or weed control at 70 g/ha [2, 17] of the same compound?
**A.** 95 to 100%

**Q.** What about the pest or weed control at 140 g/ha [2, 17] of the same compound?
**A.** 95 to 100%
